Calls of active or inactive are those of the source. No cut-off for these calls is given here.
Columns and labels:
[1] = system: Mus musculus; assay: Neuroprotective activity in C57BL/6 mouse sub-acute MPTP-induced parkinson's disease model assessed as prevention of loss of DA transporter expression in substantia nigra at 10 mg/kg, ip administered for 1 week prior to MPTP challenge by immunohistochemistry; type: functional, organism-based; design: dose 10 mg/kg
[2] = system: Mus musculus; assay: Neurotoxicity in C57BL/6 mouse assessed as TH protein expression in striatum at 10 mg/kg, ip measured after 8 days by immunohistochemistry; type: toxicity, organism-based; design: dose 10 mg/kg, route intraperitoneal; settings: in vivo, 192 h
[3] = system: Mus musculus; assay: Antiapoptotic activity against DA neurons in C57BL/6 mouse acute MPTP-induced parkinson's disease model assessed as reduction in Bax expression at 10 mg/kg, ip administered for 1 week prior to MPTP challenge measured after 8 days by immunohistochemistry relative to untreated control; type: functional, organism-based; design: dose 10 mg/kg
[4] = system: Mus musculus; assay: Neurotoxicity in C57BL/6 mouse assessed as nitrotyrosine localization in substantia nigra pars compacta at 10 mg/kg, ip by immunohistochemistry; type: toxicity, organism-based; design: dose 10 mg/kg, route intraperitoneal; settings: in vivo
[5] = system: Mus musculus; assay: Neuroprotective activity in C57BL/6 mouse acute MPTP-induced parkinson's disease model assessed as preservation of neurological behavioural changes at 10 mg/kg, ip administered for 1 week prior to MPTP challenge measured for 3 mins by open field test relative to vehicle-treated control; type: functional, organism-based; design: dose 10 mg/kg
[6] = system: Mus musculus; assay: Neuroprotective activity in C57BL/6 mouse sub-acute MPTP-induced parkinson's disease model assessed as increase in BDNF expression in brain at 10 mg/kg, ip administered for 1 week prior to MPTP challenge by immunohistochemistry; type: functional, organism-based; design: dose 10 mg/kg
[7] = system: Mus musculus; assay: Neuroprotective activity in C57BL/6 mouse sub-acute MPTP-induced parkinson's disease model assessed as bewilderment at 10 mg/kg, ip administered for 1 week prior to MPTP challenge by pole test relative to untreated control; type: functional, organism-based; design: dose 10 mg/kg
[8] = system: Mus musculus; assay: Neurotoxicity in C57BL/6 mouse assessed as Nrf2 localization in brain at 10 mg/kg, ip by immunohistochemistry; type: toxicity, organism-based; design: dose 10 mg/kg, route intraperitoneal; settings: in vivo
[9] = system: Mus musculus; assay: Antiinflammatory activity against C57BL/6 mouse acute MPTP-induced parkinson's disease model assessed as reduction in cytosolic GFAP localization in brain at 10 mg/kg, ip administered for 1 week prior to MPTP challenge by immunohistochemistry relative to untreated control; type: functional, organism-based; design: dose 10 mg/kg
[10] = system: Mus musculus; assay: Antiparkinsonian activity in C57BL/6 mouse acute MPTP-induced parkinson's disease model assessed as reduction in MPTP-induced change in body weight at 10 mg/kg, ip administered for 1 week prior to MPTP challenge relative to control; type: functional, organism-based; design: dose 10 mg/kg
[11] = system: Mus musculus; assay: Antiapoptotic activity against DA neurons in C57BL/6 mouse sub-acute MPTP-induced parkinson's disease model assessed as increase in Bcl2 expression at 10 mg/kg, ip administered for 1 week prior to MPTP challenge measured after 8 days by immunohistochemistry relative to untreated control; type: functional, organism-based; design: dose 10 mg/kg
[12] = system: Mus musculus; assay: Neurotoxicity in C57BL/6 mouse assessed as basal NGF expression in brain at 10 mg/kg, ip by immunohistochemistry; type: toxicity, organism-based; design: dose 10 mg/kg, route intraperitoneal; settings: in vivo
[13] = system: Mus musculus; assay: Antiinflammatory activity against C57BL/6 mouse sub-acute MPTP-induced parkinson's disease model assessed as reduction in cytosolic GFAP localization in brain at 10 mg/kg, ip administered for 1 week prior to MPTP challenge by immunohistochemistry relative to untreated control; type: functional, organism-based; design: dose 10 mg/kg
[14] = system: Mus musculus; assay: Neuroprotective activity in C57BL/6 mouse acute MPTP-induced parkinson's disease model assessed as increase in BDNF expression in brain at 10 mg/kg, ip administered for 1 week prior to MPTP challenge by immunohistochemistry; type: functional, organism-based; design: dose 10 mg/kg
[15] = system: Mus musculus; assay: Antiinflammatory activity against C57BL/6 mouse acute MPTP-induced parkinson's disease model assessed as increase in Nrf2 localization in brain at 10 mg/kg, ip administered for 1 week prior to MPTP challenge by immunohistochemistry relative to untreated control; type: functional, organism-based; design: dose 10 mg/kg
[16] = system: Mus musculus; assay: Neuroprotective activity in C57BL/6 mouse sub-acute MPTP-induced parkinson's disease model assessed as increase in TH protein expression in striatum at 10 mg/kg, ip administered for 1 week prior to MPTP challenge measured after 8 days by immunohistochemistry relative to untreated control; type: functional, organism-based; design: dose 10 mg/kg
[17] = system: Mus musculus; assay: Antiinflammatory activity against C57BL/6 mouse sub-acute MPTP-induced parkinson's disease model assessed as increase in Nrf2 localization in brain at 10 mg/kg, ip administered for 1 week prior to MPTP challenge by immunohistochemistry relative to untreated control; type: functional, organism-based; design: dose 10 mg/kg
[18] = system: Mus musculus; assay: Antiinflammatory activity against C57BL/6 mouse acute MPTP-induced parkinson's disease model assessed as reduction in IL-1beta localization in brain at 10 mg/kg, ip administered for 1 week prior to MPTP challenge measured after 8 days by immunohistochemistry relative to untreated control; type: functional, organism-based; design: dose 10 mg/kg
[19] = system: Mus musculus; assay: Neuroprotective activity in C57BL/6 mouse acute MPTP-induced Parkinson's disease model assessed as increase in GAP-43 expression in brain at 10 mg/kg, ip administered for 1 week prior to MPTP challenge by immunohistochemistry; type: functional, organism-based; design: dose 10 mg/kg
[20] = system: Mus musculus; assay: Toxicity in C57BL/6 mouse assessed as Bcl2 expression in brain at 10 mg/kg, ip measured after 8 days by immunohistochemistry; type: organism-based; design: dose 10 mg/kg, route intraperitoneal; settings: in vivo, 192 h
[21] = system: Mus musculus; assay: Neurotoxicity in C57BL/6 mouse assessed as cytosolic GFAP localization in brain at 10 mg/kg, ip by immunohistochemistry; type: toxicity, organism-based; design: dose 10 mg/kg, route intraperitoneal; settings: in vivo
[22] = system: Mus musculus; assay: Antiinflammatory activity against C57BL/6 mouse acute MPTP-induced parkinson's disease model assessed as reduction in nitrotyrosine localization in substantia nigra pars compacta at 10 mg/kg, ip administered for 1 week prior to MPTP challenge by immunohistochemistry relative to untreated control; type: functional, organism-based; design: dose 10 mg/kg
[23] = system: Mus musculus; assay: Neuroprotective activity in C57BL/6 mouse sub-acute MPTP-induced parkinson's disease model assessed as increase in NGF expression in brain at 10 mg/kg, ip administered for 1 week prior to MPTP challenge by immunohistochemistry; type: functional, organism-based; design: dose 10 mg/kg
[24] = system: Mus musculus; assay: Neurotoxicity in C57BL/6 mouse assessed as IL-1beta localization in brain at 10 mg/kg, ip measured after 8 days by immunohistochemistry; type: toxicity, organism-based; design: dose 10 mg/kg, route intraperitoneal; settings: in vivo, 192 h
[25] = system: Mus musculus; assay: Neuroprotective activity in C57BL/6 mouse acute MPTP-induced parkinson's disease model assessed as prevention of loss of DA transporter expression in substantia nigra at 10 mg/kg, ip administered for 1 week prior to MPTP challenge by immunohistochemistry; type: functional, organism-based; design: dose 10 mg/kg
[26] = system: Mus musculus; assay: Neurotoxicity in C57BL/6 mouse assessed as reduction of DA transporter expression in substantia nigra at 10 mg/kg, ip by immunohistochemistry; type: toxicity, organism-based; design: dose 10 mg/kg, route intraperitoneal; settings: in vivo
[27] = system: Mus musculus; assay: Neuroprotective activity in C57BL/6 mouse sub-acute MPTP-induced parkinson's disease model assessed as increase in GAP-43 expression in brain at 10 mg/kg, ip administered for 1 week prior to MPTP challenge by immunohistochemistry; type: functional, organism-based; design: dose 10 mg/kg
[28] = system: Mus musculus; assay: Antiapoptotic activity against C57BL/6 mouse sub-acute MPTP-induced parkinson's disease model assessed as protection against neuronal functional disruption at 10 mg/kg, ip administered for 1 week prior to MPTP challenge by golgi staining-based microscopic analysis relative to untreated control; type: organism-based; design: dose 10 mg/kg
[29] = system: Mus musculus; assay: Antiapoptotic activity against DA neurons in C57BL/6 mouse acute MPTP-induced parkinson's disease model assessed as protection against neuronal functional disruption at 10 mg/kg, ip administered for 1 week prior to MPTP challenge by golgi staining-based microscopic analysis relative to untreated control; type: organism-based; design: dose 10 mg/kg
[30] = system: Mus musculus; assay: Antiinflammatory activity against C57BL/6 mouse sub-acute MPTP-induced parkinson's disease model assessed as reduction in IL-1beta localization in brain at 10 mg/kg, ip administered for 1 week prior to MPTP challenge measured after 8 days by immunohistochemistry relative to untreated control; type: functional, organism-based; design: dose 10 mg/kg
[31] = system: Mus musculus; assay: Antiparkinsonian activity in C57BL/6 mouse sub-acute MPTP-induced parkinson's disease model assessed as reduction in MPTP-induced change in body weight at 10 mg/kg, ip administered for 1 week prior to MPTP challenge relative to control; type: functional, organism-based; design: dose 10 mg/kg
[32] = organism: Mus musculus; assay: Antiinflammatory activity against C57BL/6 mouse sub-acute MPTP-induced parkinson's disease model assessed as reduction in nitrotyrosine localization in substantia nigra pars compacta prior to MPTP challenge by immunohistochemistry relative to untreated control; type: functional, organism-based
[33] = system: Mus musculus; assay: Neuroprotective activity in C57BL/6 mouse acute MPTP-induced parkinson's disease model assessed as increase in TH protein expression in striatum at 10 mg/kg, ip administered for 1 week prior to MPTP challenge measured after 8 days by immunohistochemistry relative to untreated control; type: functional, organism-based; design: dose 10 mg/kg
[34] = system: Mus musculus; assay: Toxicity in C57BL/6 mouse assessed as Bax expression in brain at 10 mg/kg, ip measured after 8 days by immunohistochemistry; type: organism-based; design: dose 10 mg/kg, route intraperitoneal; settings: in vivo, 192 h
[35] = system: Mus musculus; assay: Toxicity in C57BL/6 mouse assessed as faster drop time at 10 mg/kg, ip by pole test; type: organism-based; design: dose 10 mg/kg, route intraperitoneal; settings: in vivo
[36] = system: Mus musculus; assay: Neuroprotective activity in C57BL/6 mouse acute MPTP-induced parkinson's disease model assessed as increase in NGF expression in brain at 10 mg/kg, ip administered for 1 week prior to MPTP challenge by immunohistochemistry; type: functional, organism-based; design: dose 10 mg/kg
[37] = system: Mus musculus; assay: Neurotoxicity in C57BL/6 mouse assessed as basal GAP-43 expression in brain at 10 mg/kg, ip by immunohistochemistry; type: toxicity, organism-based; design: dose 10 mg/kg, route intraperitoneal; settings: in vivo
[38] = system: Mus musculus; assay: Toxicity in C57BL/6 mouse assessed as change in body weight at 10 mg/kg, ip; type: organism-based; design: dose 10 mg/kg, route intraperitoneal; settings: in vivo
[39] = system: Mus musculus; assay: Neuroprotective activity in C57BL/6 mouse sub-acute MPTP-induced parkinson's disease model assessed as latency time at 10 mg/kg, ip administered for 1 week prior to MPTP challenge by open field test relative to vehicle-treated control; type: functional; settings: route intraperitoneal
[40] = system: Mus musculus; assay: Antiapoptotic activity against DA neurons in C57BL/6 mouse sub-acute MPTP-induced parkinson's disease model assessed as reduction in Bax expression at 10 mg/kg, ip administered for 1 week prior to MPTP challenge measured after 8 days by immunohistochemistry relative to untreated control; type: functional, organism-based; design: dose 10 mg/kg
[41] = system: Mus musculus; assay: Antiapoptotic activity against DA neurons in C57BL/6 mouse acute MPTP-induced parkinson's disease model assessed as increase in Bcl2 expression at 10 mg/kg, ip administered for 1 week prior to MPTP challenge measured after 8 days by immunohistochemistry relative to untreated control; type: functional, organism-based; design: dose 10 mg/kg

C[S@@+]([O-])CCCC/C(=N/OS(=O)(=O)O)S[C@@H]1O[C@H](CO)[C@@H](O)[C@H](O)[C@H]1O (racemic)
Activity [1]: Active
Activity [2]: Non-toxic
Activity [3]: Active
Activity [4]: Non-toxic
Activity [5]: Active
Activity [6]: Active
Activity [7]: Active
Activity [8]: Non-toxic
Activity [9]: Active
Activity [10]: Active
Activity [11]: Active
Activity [12]: Non-toxic
Activity [13]: Active
Activity [14]: Active
Activity [15]: Active
Activity [16]: Active
Activity [17]: Active
Activity [18]: Active
Activity [19]: Active
Activity [20]: Non-toxic
Activity [21]: Non-toxic
Activity [22]: Active
Activity [23]: Active
Activity [24]: Non-toxic
Activity [25]: Active
Activity [26]: Non-toxic
Activity [27]: Active
Activity [28]: Active
Activity [29]: Active
Activity [30]: Active
Activity [31]: Active
Activity [32]: Active
Activity [33]: Active
Activity [34]: Non-toxic
Activity [35]: Non-toxic
Activity [36]: Active
Activity [37]: Non-toxic
Activity [38]: Non-toxic
Time [39]: 0 min
Activity [40]: Active
Activity [41]: Active

From ChEMBL document CHEMBL2417379, “Anti-inflammatory and anti-apoptotic effects of (RS)-glucoraphanin bioactivated with myrosinase in murine sub-acute and acute MPTP-induced Parkinson's disease” (Bioorg Med Chem, 2013)
